# From US20050154229A1, “Maleic acid salt of(2s)-n-{5-[amino(imino)methy]-2-thienyl}methyl-1-{(2r)-2-[(carboxymethyl)amino]-3,3-diphenylpropanoyl}-2-pyrrolidine carboxamide and a process for” (priority 2002, published 2005)
# Where a name gives a salt, the structure may show the parent alone.
# Experiments:
# Format in all cases: physicochemical
# [1] = Moisture absorption and dehumidification tests at defined relative humidities (condition observed, weight change); details: two days or more
# Experimental: After 40 mg of the amorphous form of maleic acid salt prepared in Example 1 was thinly coated onto a beaker, the sample was moisture-absorbed by placing it at each relative humidity of 33%, 57%, 64%, 75% and 93% for two days or more and its condition was observed. In order to obtain each relative humidity above, as shown in the table below, saturated aqueous solutions of salts were prepared and then placed in a desiccator, and the desiccator was sealed.
# 100 mg of the crystalline form of maleic acid salt prepared in Example 2 was thinly coated onto a beaker and then placed at each relative humidity of 33%, 57%, 64%, 75% and 93% for two days or more to be moisture-absorbed. Thereafter, the weight change of the sample was measured while its condition is observed. In order to obtain each relative humidity above, as shown in Table 2 of Test example 2, saturated aqueous solutions of salts were prepared and then placed in a desiccator and the desiccator was sealed.
# The method as described in Test example 2 was applied to the amorphous diHCl salt prepared in Comparative Example 1. From observing its change at each relative humidity, it is shown that the salt was deliquesced at the relative humidity of 75%. […] Therefore, it can be shown that the maleic acid salt is the most excellent among various acid salts.
# [2] = Powder X-ray diffraction test during moisture absorption and dehumidification; details: vacuum dried, then relative humidity 33%, 53%, 64%, 75% and 93%, two days or more each
# Experimental: 40 mg of the crystalline form of maleic acid salt prepared in Example 2 was thinly coated onto a sample holder and then the powder X-ray diffraction test was conducted according to the following conditions. By using Rigaku Geigeflex D/max-III C apparatus, the test was conducted at 35 kV, 20 mA.
# 40 mg of the maleic acid salt prepared in Example 2 was thinly coated onto a sample holder. Immediately after the sample was vacuum dried in the presence of P2O5, and after the sample was placed for moisture absorption at each relative humidity of 33%, 53%, 64%, 75% and 93% for two days or more, respectively, the powder X-ray diffraction test of the sample was conducted according to the conditions represented in the above Test example 1 to observe change of the crystalline form during moisture absorption. While lowering the relative humidity, the same test was repeated to observe change of the crystalline form during dehumidification. In order to obtain each relative humidity above, as shown in Table 2 of Test example 2, saturated aqueous solutions of salts were prepared and then placed in a desiccator and the desiccator was sealed.
# [3] = Test of the dissolution rate per unit area (0.5 cm^2 disk in buffer solutions)
# Experimental: Some compounds may have difficulty in being absorbed due to a low dissolution rate. To confirm the above difficulty beforehand, a disk having the area of 0.5 cm^2 is prepared, and then its dissolution rate in various media is measured. The dissolution amount over time is measured and its value is divided by the disk's area. The value is the dissolution rate per unit area. If the value is usually 1 mg/min/cm^2 or more, it can be said that there is no phenomenon for the drug not to be absorbed due to the low dissolution rate. If the value is 0.1 mg/min/cm^2 or less, it can be said that the drug has a problem of absorption due to the low dissolution rate (see, Howard C. Ansel, Nicholas G. Popovich and Loyd V. Allen, 1995, Pharmaceutical Dosage Forms and Drug Delivery Systems, 6th ed., Williams & Wilkins, pp.109 and Jens T. Carstensen, 1996, Modern Pharmaceutics: Gilbert S. Banker and Christopher T. Rhodes (Ed.), Drugs and the pharmaceutical sciences, Vol. 72, 3rd ed., Dekker, pp. 233.). Thus, measuring the dissolution rate per unit area has a very significant meaning in predicting the absorption problem that may occur in in vivo test of the drug later. Therefore, a compound having an excellent dissolution rate per unit area should be selected as a candidate for the drug development.
# 200 mg of the crystalline form of maleic acid salt prepared in Example 2 was put into a mold. By applying pressure on the mold, a disk having the area of 0.5 cm^2 was prepared and the disk was added to each of the buffer solutions (600 ml) of pH 3.8 and 7.4 to conduct the dissolution test. A portion of the solution was periodically taken and its concentration was measured to determine the dissolution rate per unit area.
# The same test as Test example 5 was conducted on the free compound of Formula 1. The dissolution rate per unit area of the free compound was 1.3 mg/min/cm^2 at pH 3.8 and 0.3 mg/min/cm^2 at pH 7.4.
condition observed after moisture absorption ([1]; relative humidity of 75%),condition observed after moisture absorption ([1]; relative humidity of 93%),change of the powder X-ray diffraction diagram (crystalline form) during moisture absorption and dehumidification [2],weight increase on moisture absorption based on initial weight ([1]; relative humidity of 33%),weight increase on moisture absorption based on initial weight ([1]; relative humidity of 57%),weight increase on moisture absorption based on initial weight ([1]; relative humidity of 64%),weight increase on moisture absorption based on initial weight ([1]; relative humidity of 75%),weight increase on moisture absorption based on initial weight ([1]; relative humidity of 93%),"dissolution rate per unit area ([3]; buffer solution pH 3.8, 600 ml)","dissolution rate per unit area ([3]; buffer solution pH 7.4, 600 ml)",SMILES
deliquesced,–,–,–,–,–,–,–,–,–,N=C(N)c1ccc(CNC(=O)[C@@H]2CCCN2C(=O)[C@H](NCC(=O)O)C(c2ccccc2)c2ccccc2)s1 [amorphous diHCl salt]
hardened,deliquesced,–,–,–,–,–,–,–,–,"N=C(N)c1ccc(CNC(=O)[C@@H]2CCCN2C(=O)[C@H](NCC(=O)O)C(c2ccccc2)c2ccccc2)s1.O=C(O)/C=C\C(=O)O [amorphous form of maleic acid salt, maleic acid salt of (2S)-N-{5-[amino(imino)methyl]-2-thienyl}methyl-1-{(2R)-2-[(carboxymethyl)amino]-3,3-diphenylpropanoyl}-2-pyrrolidine carboxamide]"
–,not deliquesced,did not show any change,1.4%,3.0%,4.3%,4.1%,6.7%,11.8 mg/min/cm^2,1.7 mg/min/cm^2,"N=C(N)c1ccc(CNC(=O)[C@@H]2CCCN2C(=O)[C@H](NCC(=O)O)C(c2ccccc2)c2ccccc2)s1.O=C(O)/C=C\C(=O)O [crystalline form of maleic acid salt, maleic acid salt of (2S)-N-{5-[amino(imino)methyl]-2-thienyl}methyl-1-{(2R)-2-[(carboxymethyl)amino]-3,3-diphenylpropanoyl}-2-pyrrolidine carboxamide]"
–,–,–,–,–,–,–,–,1.3 mg/min/cm^2,0.3 mg/min/cm^2,"N=C(N)c1ccc(CNC(=O)[C@@H]2CCCN2C(=O)[C@H](NCC(=O)O)C(c2ccccc2)c2ccccc2)s1 [free compound, (2S)-N-{5-[amino(imino)methyl]-2-thienyl}methyl-1-{(2R)-2-[(carboxymethyl)amino]-3,3-diphenylpropanoyl}-2-pyrrolidine carboxamide]"
